Test: Inhibition of CSF1R in mouse M-NFS-60 cells assessed as inhibition of cell proliferation after 72 hrs by Celltiter-Blue assay

Compound	IC50 [nM]
Cc1ccnc(C(=O)Nc2ccc(NC(=O)Nc3cc(C(C)(C)C)on3)cc2)c1	63.9
CCN1C(C)(C)CC(Oc2ccc(C(=O)Nc3ccc(NC(=O)Nc4cc(C(C)(C)C)on4)cc3)nc2)CC1(C)C	46.3
CC(C)N1CCC(Oc2ccc(C(=O)Nc3ccc(NC(=O)Nc4cc(C(C)(C)C)on4)cc3)nc2)CC1	78
CN1C(C)(C)CC(Oc2ccc(C(=O)Nc3ccc(NC(=O)Nc4cc(C(C)(C)C)on4)cc3)nc2)CC1(C)C	50.4
CC(C)(C)c1cc(NC(=O)Nc2ccc(NC(=O)c3ccc(OC4CCN(C5CC5)CC4)cn3)cc2)no1	150
Cc1ccc(C(=O)Nc2ccc(NC(=O)Nc3cc(C(C)(C)C)on3)cc2)nc1	223
CC1(C)CC(Oc2ccc(C(=O)Nc3ccc(NC(=O)Nc4cc(C(C)(C)C)on4)cc3)nc2)CC(C)(C)N1	74.7
CC(C)(C)c1cc(NC(=O)Nc2ccc(NC(=O)c3ccc(OC4CCN(C(C)(C)C)CC4)cn3)cc2)no1	64.4

— BindingDB's records for doi:10.1021/ml300214g (2012)
